Laboratory results: paper PMC6017357, “In Vitro Inhibitory Effects of Synthetic Cannabinoid EAM-2201 on Cytochrome P450 and UDP-Glucuronosyltransferase Enzyme Activities in Human Liver Microsomes” (Molecules : A Journal of Synthetic Chemistry and Natural …, 2018)
pIC50: −log10 of the molar value.

What was measured:
Assay type in all cases: in vitro ADME
Design in all cases: from tissue; host or cells: ultrapooled human liver microsomes
CYP2C19 = CYP2C19 (Homo sapiens, UniProt P33261); experiment: CYP2C19-mediated [S]-mephenytoin 4′-hydroxylation in human liver microsomes (IC50 and time-dependent inhibition)
Chain of CYP2C19 (P33261 whole entry): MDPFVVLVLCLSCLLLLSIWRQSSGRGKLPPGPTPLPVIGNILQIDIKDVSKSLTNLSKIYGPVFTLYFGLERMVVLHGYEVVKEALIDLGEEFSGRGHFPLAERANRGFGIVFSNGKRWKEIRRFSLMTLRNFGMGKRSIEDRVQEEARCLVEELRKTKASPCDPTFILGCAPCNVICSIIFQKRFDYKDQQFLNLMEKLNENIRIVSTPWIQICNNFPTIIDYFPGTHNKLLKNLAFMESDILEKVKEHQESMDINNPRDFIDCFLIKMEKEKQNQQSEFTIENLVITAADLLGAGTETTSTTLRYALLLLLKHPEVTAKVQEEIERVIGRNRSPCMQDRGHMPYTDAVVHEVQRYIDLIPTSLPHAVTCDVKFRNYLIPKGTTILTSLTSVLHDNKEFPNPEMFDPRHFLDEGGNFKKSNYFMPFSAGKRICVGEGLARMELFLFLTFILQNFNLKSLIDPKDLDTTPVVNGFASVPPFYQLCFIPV
Protocol: (§1) The inhibitory potential (IC50 values) of EAM-2201 on CYP1A2, CYP2A6, CYP2C8, CYP2C9, CYP2C19, CYP2D6 and CYP3A4 were evaluated using ultrapooled human liver microsomes and a cocktail of seven CYP substrates followed by LC-tandem mass spectrometry (LC-MS/MS) as previously described. Each incubation mixture was prepared in a total volume of 100 µL as follows: pooled human liver microsomes (5.2 pmol CYP), 1.0 mM NADPH, 10 mM magnesium chloride, 50 mM potassium phosphate buffer (pH 7.4), various concentrations of EAM-2201 in DMSO (final concentrations of 0.1–50 µM, 0.5% DMSO) and a cocktail of seven CYP probe substrates in 50% acetonitrile (0.5% acetonitrile), including 50 µM phenacetin, 2.5 µM coumarin, 2.0 µM amodiaquine, 10 µM diclofenac, 100 µM [S]-mephenytoin, 5 µM bufuralol and 2.5 µM midazolam in 50% acetonitrile. After a 3-min preincubation at 37 °C, the reactions were initiated by adding NADPH and incubation proceeded for 15 min at 37 °C in a shaking water bath. The reactions were stopped by adding 100 µL of ice-cold methanol containing internal standards (^13C2,^15N-acetaminophen for acetaminophen and N-desethylamodiaquine; d9-1′-hydroxybufuralol for 4′-hydroxydiclofenac, 7-hydroxycoumarin, 4′-hydroxymephenytoin, 1′-hydroxybufuralol and 1′-hydroxy-midazolam). The incubation mixtures were centrifuged at 13,000× g for 4 min at 4 °C and 50 µL of each supernatant was diluted in 50 µL of water. Aliquots (5 µL) of the diluted supernatants were analyzed using LC-MS/MS. All assays were performed in triplicate and the mean values were used in calculations. […] Each reaction was initiated by adding the seven-CYP probe substrate cocktail described above.
(§2) The time-dependent inhibitory effects of EAM-2201 on CYP2C8, CYP2C9, CYP2C19 and CYP3A4 activities in ultrapooled human liver microsomes were evaluated using time- and concentration-dependent inhibition assays. Ultrapooled human liver microsomes (26.0 pmol CYP) were pre-incubated with various concentrations of EAM-2201 in DMSO (0.5% DMSO) in 50 mM potassium phosphate buffer (pH 7.4) in the presence of NADPH for predetermined time periods: 5–15 min for CYP2C8 activity, 5–20 min for CYP2C9 activity and 15–40 min for CYP2C19 and CYP3A4 activities. […] Aliquots (5 µL) of the diluted supernatants were analyzed using LC-MS/MS.
(§3) The metabolites formed from CYP substrates were simultaneously quantified using our previously described LC-MS/MS method. […]

CYP2C9 = CYP2C9 (Homo sapiens, UniProt P11712); experiment: CYP2C9-catalyzed diclofenac 4′-hydroxylation in human liver microsomes (IC50 and time-dependent inhibition)
Chain of CYP2C9 (P11712 whole entry): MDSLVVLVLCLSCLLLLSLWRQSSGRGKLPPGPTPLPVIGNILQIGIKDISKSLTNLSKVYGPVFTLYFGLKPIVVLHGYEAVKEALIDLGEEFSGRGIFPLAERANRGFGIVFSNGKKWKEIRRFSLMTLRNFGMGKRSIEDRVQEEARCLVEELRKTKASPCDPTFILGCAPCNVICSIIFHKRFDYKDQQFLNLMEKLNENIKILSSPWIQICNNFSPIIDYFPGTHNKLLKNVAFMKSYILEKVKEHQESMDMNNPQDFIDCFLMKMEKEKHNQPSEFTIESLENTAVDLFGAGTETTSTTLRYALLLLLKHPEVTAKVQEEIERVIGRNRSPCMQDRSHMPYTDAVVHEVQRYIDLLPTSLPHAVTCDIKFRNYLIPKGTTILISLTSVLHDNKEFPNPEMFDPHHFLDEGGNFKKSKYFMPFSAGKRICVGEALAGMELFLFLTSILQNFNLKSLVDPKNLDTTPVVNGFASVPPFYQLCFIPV
Protocol: as §1, §2, §3

CYP3A4 = CYP3A4 (Homo sapiens, UniProt P08684); experiment: CYP3A4-mediated midazolam 1′-hydroxylation in human liver microsomes (IC50 and time-dependent inhibition)
Chain of CYP3A4 (P08684 whole entry): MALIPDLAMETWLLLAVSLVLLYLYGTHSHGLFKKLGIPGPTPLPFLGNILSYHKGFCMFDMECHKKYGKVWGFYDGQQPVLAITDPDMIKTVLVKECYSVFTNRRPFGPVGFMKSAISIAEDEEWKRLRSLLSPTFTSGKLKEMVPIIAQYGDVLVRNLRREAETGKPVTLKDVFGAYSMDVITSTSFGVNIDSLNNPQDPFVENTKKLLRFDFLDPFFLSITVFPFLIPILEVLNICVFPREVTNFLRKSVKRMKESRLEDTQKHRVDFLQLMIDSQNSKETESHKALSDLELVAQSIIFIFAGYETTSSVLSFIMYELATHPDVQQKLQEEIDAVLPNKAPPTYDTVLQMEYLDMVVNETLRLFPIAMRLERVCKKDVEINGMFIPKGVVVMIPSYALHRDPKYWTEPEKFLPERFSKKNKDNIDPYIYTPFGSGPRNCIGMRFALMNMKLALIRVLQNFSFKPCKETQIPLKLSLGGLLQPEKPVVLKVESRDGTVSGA
Protocol: as §1, §2, §3

[1] = up to 50 µM, without 30-min preincubation, human liver microsomes

## CCc1ccc(C(=O)c2cn(CCCCCF)c3ccccc23)c2ccccc12 [EAM-2201, (4-ethyl-1-naphthalenyl)[1-(5-fluoropentyl)-1H-indol-3-yl]-methanone]
CYP2C19
  pIC50: 4.96
CYP2C19; human liver microsomes
  inactivation efficiency (kinact/Ki), CYP2C19: 115 M⁻¹ s⁻¹
CYP2C19; human, ultrapooled human liver microsomes, pH 7.4, probe [S]-mephenytoin (100 µM), 4′-hydroxylation, read-out: kinact, time-dependent inhibition of CYP2C19 [S]-mephenytoin 4′-hydroxylase (converted)
  kinact: 0.00044 s⁻¹
CYP2C19; [1]
  inhibition of CYP2C19-mediated [S]-mephenytoin 4′-hydroxylation: negligibly inhibited
CYP2C9
  pIC50: 5.17
CYP2C9; human liver microsomes
  inactivation efficiency (kinact/Ki), CYP2C9: 257 M⁻¹ s⁻¹
CYP2C9; human, ultrapooled human liver microsomes, pH 7.4, probe diclofenac (10 µM), 4′-hydroxylation, read-out: kinact, time-dependent inhibition of CYP2C9 diclofenac 4′-hydroxylase (converted)
  kinact: 0.00077 s⁻¹
CYP2C9; [1]
  inhibition of CYP2C9-catalyzed diclofenac 4′-hydroxylation: negligibly inhibited
CYP3A4
  pIC50: 4.75
CYP3A4; human liver microsomes
  kinact/Ki value for CYP3A4: 102 M⁻¹ s⁻¹
CYP3A4; human, ultrapooled human liver microsomes, pH 7.4, probe midazolam (2 µM), 1′-hydroxylation, read-out: kinact, time-dependent inhibition of CYP3A4 midazolam 1′-hydroxylase (converted)
  kinact: 0.000417 s⁻¹
CYP3A4; [1]
  inhibition of CYP3A4-mediated midazolam 1′-hydroxylation: negligibly inhibited
